These results are taken from article PMC8667948, “Mechanism of biotin carboxylase inhibition by ethyl 4-[[2-chloro-5-(phenylcarbamoyl)phenyl]sulphonylamino]benzoate” (Journal of Enzyme Inhibition and Medicinal Chemistry, 2021).

SMILES strings stand for the structures. Like-named read-outs stand apart in the source and are kept apart here.

What is called IC50 is the midpoint of a concentration-inhibition curve. One may read the MIC as the least concentration at which growth counts as inhibited.

Assay [1] concerns the target T1, biotin carboxylase (BC) (Escherichia coli, UniProt P24182).
T1 construct: His tag (N); made in house
The assay is described as follows: Biotin carboxylase inhibition versus ADP (EnzChek Pi assay). Format: biochemical. Particulars: ADP varied 0.19-19 µM; ATP 0.6 mM; biotin 40 mM; SABA1 100 µM; fit to Equation (5). The procedure:
(§1) For inhibition studies that varied ATP or biotin, initial velocities were measured as previously reported. In brief, pyruvate kinase and lactic dehydrogenase were used to couple ADP production to NADH oxidation, which can be measured spectrophotometrically at 340 nm. For inhibition studies varying ADP, activity was determined by following the production of inorganic phosphate (Pi) using the EnzChek® Phosphate Assay Kit (Molecular Probes) according to the manufacturer’s protocol. In brief, purine nucleoside phosphorylase converts 2-amino-6-mercapto-7-methylpurine riboside to ribose 1-phosphate and 2-amino-6-mercapto-7-methylpurine in the presence of Pi. This reaction is monitored at […][32]. Kinetic data were collected on a Cary60 UV-Vis spectrophotometer (Agilent Technologies)
To determine the inhibition pattern versus ADP using the Pi assay, ADP was varied from 0.19 µM to 19 µM. ATP was held constant at 0.6 mM, biotin was held constant 40 mM, and SABA1 was held constant at 100 µM. Each reaction cocktail was incubated in the presence or absence of SABA1 for 10 min. The reaction was started by addition of biotin.
Data for inhibition studies varying ADP were analysed by nonlinear regression using the program Enzfitter[34]. […]

The test system of assay [2] is E. coli ACC. Further details: method as in PMID 26169404. The settings on record: cited from earlier work.
Assay [3] addresses T2, Acetyl-CoA carboxylase (ACC) (Escherichia coli, UniProt P24182).
T2 construct: His tag (N); made in house
The assay is described as follows: ACC assay, ATP varied (BC:BCCP:CT 1:2:1). Format: biochemical. Particulars: ATP varied 1.0-16 µM, acetyl-CoA 0.20 mM, SABA1 0, 50, 100 µM. On the procedure:
As stated above, the components of ACC were purified separately. Purified BC, BCCP, and CT were combined in a 1:2:1 molar ratio and allowed to equilibrate for 1 h prior to assaying ACC. To determine the inhibition pattern versus ATP, ATP was varied from 1.0 µM to 16 µM. SABA1 was held at fixed concentrations of 0.0 µM, 50 µM, or 100 µM. Acetyl-CoA was held constant at 0.20 mM. The reaction was started by the addition of enzyme.
Non-competitive inhibition data were fitted to Equation (2) where v is the experimentally determined velocity, V is maximal velocity, A is substrate concentration, Km is the Michaelis constant, I is inhibitor concentration and Kii is the inhibition constant for the intercept and Kis is the inhibition constant for the slope. (2) v=VA/Km(1+I/Kis)+A(1+I/Kii)

The test system of assay [4] is efflux compromised E. coli (ΔtolC::tet). Particulars: cited from earlier work.
Assay [5] addresses T1, biotin carboxylase (BC). The assay is described as follows: Biotin carboxylase inhibition assay, ATP or biotin varied (pyruvate kinase/lactic dehydrogenase coupled). Type of assay: biochemical. Particulars: SABA1 0, 75, 150 µM. The procedure: as §1
To determine the inhibition pattern versus ATP, ATP was varied from 0.05 mM to 1.0 mM. SABA1 was held at fixed concentrations of 0.0 µM, 75 µM, or 150 µM. Biotin was held constant at 40 mM. […]
Data for inhibition studies varying ATP or biotin were analysed by nonlinear regression using the programs of Cleland[33]. Competitive inhibition data were fitted to Equation (1) where v is the experimentally determined velocity, V is maximal velocity, A is substrate concentration, Km is the Michaelis constant, I is inhibitor concentration and Kis is the inhibition constant for the slope. […]

In assay [6] the target is T1, biotin carboxylase (BC). The assay is described as follows: Multiple inhibition assay (Yonetani-Theorell) on BC. Type of assay: biochemical. The settings on record: aminooxazole varied 0.2-3.2 µM at fixed SABA1 0, 75, 150 µM; ATP 0.2 mM, biotin 40 mM; intersecting pattern. The procedure:
To determine the multiple inhibition pattern with respect to ATP, aminooxazole was varied from 0.2 µM to 3.2 µM. SABA1 was held at fixed concentrations of 0.0 µM, 75 µM, or 150 µM. ATP and biotin were held constant at 0.2 mM and 40 mM, respectively. To determine the multiple inhibition pattern with respect to biotin, desthiobiotin was varied from 1.0 mM to 20 mM. SABA1 was held at fixed concentrations of 0.0 µM, 75 µM, or 150 µM. ATP and biotin were held constant at 0.2 mM and 40 mM, respectively.
Multiple inhibition data were fitted to Equation (3) where v is the experimentally determined velocity, V is maximal velocity, L and J are the concentration of the two inhibitors, KL and KJ are the apparent inhibition constants of those respective inhibitors, and α is the interaction factor of the two inhibitors. (3) v=V/1+L/KL+J/KJ+LJ/αKLKJ
Competitive inhibition means that binding of the inhibitor and the substrate to the enzyme are mutually exclusive. […] To determine if SABA1 can bind in the ATP binding site, biotin binding site or both, multiple inhibition analysis was performed as described by Yonetani and Theorell[42]. Multiple inhibition analysis is used to define the topological relationship between two different enzyme inhibitors. Initial velocities are measured while one inhibitor is varied against fixed increasing concentrations of the second inhibitor. […]

In assay [7] the test system is efflux compromised P. aeruginosa strain PAO397. Details: method as in PMID 26169404. The settings on record: cited from earlier work.
For assay [8], the system named is BC. Further details: method as in PMID 4922289. The settings on record: % activity of biotin; cited from earlier work.

For the compound `CCOC(=O)c1ccc(NS(=O)(=O)c2cc(C(=O)Nc3ccccc3)ccc2Cl)cc1` [SABA1, ethyl 4-[[2-chloro-5-(phenylcarbamoyl)phenyl]sulfonylamino]benzoate], the “Ki, uncompetitive inhibition versus ADP” value in assay [1] is 10.3 ± 0.1 µM. Besides, the IC50 in assay [2] is 4 µM. The Ki amounted to 23.3 ± 4.4 µM in assay [3] (read-out: Kii, non-competitive inhibition versus ATP); 96.3 ± 31.6 µM in assay [3] (read-out: Kis, non-competitive inhibition versus ATP); 242 ± 32 µM in assay [5] (ATP varied 0.05-1.0 mM, biotin constant 40 mM (subsaturating), read-out: Kis, competitive inhibition versus ATP); 142 ± 12.3 µM in assay [5] (biotin varied 20-200 mM, ATP constant 0.2 mM (subsaturating), read-out: Kis, competitive inhibition versus biotin). The MIC in assay [4] was 0.45 to 0.9 µM. The “α value (interaction factor of the two inhibitors)” value in assay [6] was determined as 0.6. Also, the “prolongs the doubling time” value in assay [7] is reported as 30%.

As to `C[C@@H]1NC(=O)N[C@@H]1CCCCCC(=O)O` [Desthiobiotin], the “activity as slow alternate substrate, relative to biotin” value in assay [8] is 0.2%.
